This passage reports IC50 results from ChEMBL document CHEMBL5727558, “Organic compounds” (2020).

pIC50: −log10 of the molar value.

The target in assay [1] is Dual specificity calcium/calmodulin-dependent 3',5'-cyclic nucleotide phosphodiesterase 1B (Homo sapiens, UniProt Q01064). As to the kind of experiment: (§1) Enzyme Assay: Assay: The following phosphodiesterase enzymes may be used: 3′,5′-cyclic-nucleotide-specific bovine brain phosphodiesterase (Sigma, St. Louis, Mo.) (predominantly PDE1B) and recombinant full length human PDE1A and PDE1B (r-hPDE1A and r-hPDE1B respectively) which may be produced e.g., in HEK or SF9 cells by one skilled in the art. The PDE1 enzyme is reconstituted with 50% glycerol to 2.5 U/ml. One unit of enzyme will hydrolyze 1.0 μmole of 3′,5′-cAMP to 5′-AMP per min at pH 7.5 at 30° C. One part enzyme is added to 1999 parts reaction buffer (30 μM CaCl2, 10 U/ml of calmodulin (Sigma P2277), 10 mM Tris-HCl pH 7.2, 10 mM MgCl2, 0.1% BSA, 0.05% NaN3) to yield a final concentration of 1.25 mU/ml. 99 μl of diluted enzyme solution is added into each well in a flat bottom 96-well polystyrene plate to which 1 μl of test compound dissolved in 100% DMSO is added. The compounds are mixed and pre-incubated with the enzyme for 10 min at room temperature.
Sequence of Dual specificity calcium/calmodulin-dependent 3',5'-cyclic nucleotide phosphodiesterase 1B (Q01064 whole entry): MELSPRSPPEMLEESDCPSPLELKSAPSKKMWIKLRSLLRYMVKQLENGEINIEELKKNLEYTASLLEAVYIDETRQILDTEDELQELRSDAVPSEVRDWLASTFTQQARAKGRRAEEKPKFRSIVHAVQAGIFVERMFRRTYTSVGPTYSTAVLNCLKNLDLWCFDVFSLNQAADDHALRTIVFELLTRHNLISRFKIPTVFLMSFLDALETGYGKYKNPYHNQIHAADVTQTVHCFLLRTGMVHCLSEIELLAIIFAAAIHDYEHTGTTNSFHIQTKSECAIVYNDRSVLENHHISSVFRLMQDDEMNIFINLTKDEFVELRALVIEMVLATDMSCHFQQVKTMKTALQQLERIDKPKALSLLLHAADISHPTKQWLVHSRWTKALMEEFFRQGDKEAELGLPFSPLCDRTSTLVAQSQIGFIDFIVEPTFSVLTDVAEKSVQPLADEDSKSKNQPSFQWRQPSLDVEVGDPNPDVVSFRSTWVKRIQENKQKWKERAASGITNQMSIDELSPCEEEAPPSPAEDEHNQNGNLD

Assay [2] concerns the target Dual specificity calcium/calmodulin-dependent 3',5'-cyclic nucleotide phosphodiesterase 1A (Homo sapiens, UniProt P54750). The description is as §1.

Sequence of Dual specificity calcium/calmodulin-dependent 3',5'-cyclic nucleotide phosphodiesterase 1A (P54750 whole entry): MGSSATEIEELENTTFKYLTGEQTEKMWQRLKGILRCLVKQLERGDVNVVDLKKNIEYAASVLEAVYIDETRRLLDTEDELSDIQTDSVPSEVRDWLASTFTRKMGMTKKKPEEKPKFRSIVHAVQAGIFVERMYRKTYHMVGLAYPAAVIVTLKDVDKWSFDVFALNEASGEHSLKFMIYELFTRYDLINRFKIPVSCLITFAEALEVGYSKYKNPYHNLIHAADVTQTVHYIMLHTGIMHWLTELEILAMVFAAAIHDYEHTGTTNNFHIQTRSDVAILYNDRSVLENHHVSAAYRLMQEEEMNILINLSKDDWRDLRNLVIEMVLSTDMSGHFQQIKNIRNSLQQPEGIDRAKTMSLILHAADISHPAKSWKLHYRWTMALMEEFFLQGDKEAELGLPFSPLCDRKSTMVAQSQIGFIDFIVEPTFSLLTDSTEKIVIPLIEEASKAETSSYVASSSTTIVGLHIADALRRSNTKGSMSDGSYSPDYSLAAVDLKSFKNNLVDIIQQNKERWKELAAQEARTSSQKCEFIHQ

For orientation: pIC50 means −log10 of the IC50, conventionally taken in molar units. On to `CC(C)Sc1c2c(nn1Cc1ccc(-c3cccc(F)n3)cc1)N1CC(C)(C)N=C1N(C)C2=O`, for which the pIC50 in assay [1] is 5.52; in assay [2], 8.30.
